From PMC10141580, “Cyclic Dichalcogenides Extend the Reach of Bioreductive Prodrugs to Harness Thiol/Disulfide Oxidoreductases: Applications to seco-Duocarmycins Targeting the Thioredoxin System” (ACS Central Science, 2023)

Experiments:
[1] = system: 4T1 murine breast cancer; assay: 4T1 orthotopic breast cancer efficacy study; format: in vivo; settings: 4T1 in Balb/c mice; CBI prodrugs 3 mg/kg
Source text: (§1) We then moved to in vivo anticancer efficacy trials of these prodrugs. […] As one model we chose the syngeneic murine breast cancer 4T1, implanted orthotopically (at the native tissue site) into the fat pad of immunocompetent Balb/c mice (i.e., offering a realistic immune system and tumor microenvironment). This model gives rapid, aggressive tumor growth.[52] As a second model, we chose to xenograft human BxPC-3 pancreatic adenocarcinoma cells into immunodeficient hosts. This is a slower-growing model, with low metastasis, that can be more resistant to traditional antimitotic therapy.[53],[54] Mice were implanted, randomized once tumors reached 100–150 mm^3 volume, and treated once or twice weekly with prodrug or control compounds typically at 3 mg/kg (8–12 animals per condition, Figure 10a). Tumors were measured by caliper during the assay and weighed at termination.
7. 2. in vivo efficacy mouse studies
4T1 efficacy study BxPC-3 efficacy study a Absolute tumour volumes b Absolute tumour volumes […]
days after tumor implantation days after tumor implantation c Relative tumour volumes d Relative tumour volumes […]
e RTV! fi"al day of followu# f ex viv tumour weights g RTV! fi"al day of followu# h ex viv tumour weights (. mice remain in all *roups) (for animals left at day 31)(all *roups have statistical power)(day "2/ all animals left) […]
vehicle(1x)(1x)(1x) (2x)(2x) […]
P-##"0-#$%-&'%P-!!"0-#$%-&'%P-!!"0-#$%-()%P-!!"0-#$%-&'% %rinotecan %rinotecan P-##"0-#$%-&'%P-!!"0-#$%-()%P-!!"0-#$%-&'%P-!!"0-#$%-&'% P-!!"0-#$%-&'% P-!!"0-#$%-&'% […]
i Body weights $ Body weights […]
implant in Balb/c mice, 8 mice per group; (b, d,g,h,j): BxPC-3 subcutaneous xenograft in NMRi mice, 8 mice per […]
treatment (m e d ia n); (e,g) in vivo caliper measurement of relative tum or volumes at final day of followup [last day when all mice in all groups remain in the study] […]
tumor weights at termination of study (only mice not terminated on ethical grounds before the indicated days were harvested); (i,j) Bodyweights (means).
(BxPC-3 study); dotted vertical lines indicate days of [potential] treatment.

[2] = system: Balb/c mice; assay: Moderate repeated dosing tolerability study; format: in vivo; settings: once weekly
Experimental: Next, a moderate repeated dosing study in Balb/c mice (3 animals per group) tested the importance of solubilizing the prodrugs.
Methods for in vivo animal studies
All in vivo studies were conducted as contract research together with React ionBiology Eur ope G mbH (Freiburg,
Germany), EPO – Experimental Pharmacology & Oncology GmbH (Berlin, Germany); Bient a/ Enam ine Lt d. (Kyiv,
Ukraine) and Leit at – Managing Technologies (Barcelona, Spain), adhering to the respective animal welfare
Mice were kept in individually ventilated cages at constant temperature (22±2 °C, air-conditioned) and humidity (45
– 65%), under optimum hygienic conditions with 10 – 15 air changes per hour. A cycle of 12 h artificial fluorescent
light ning and 12 h darkness was applied , and animal behavior was monitored daily throughout the studies. The
animals received food and water ad libit um.
To evaluate toxicity of selected compounds, dose level selection studies within dose range from 0.1 mg/kg to
10 mg/kg were performed by intravenous administration into Balb /c mice. Each dose for each tested compound
was administered in one mouse.
changes and clinical signs of gross toxicity three tim es per week for 21 consecutive days of post-dosing period.
After the first week of observation without adverse events, two doses for each test compound were selected as
tolerated. These two doses were tested in two additional mice for confirmation of toler ability. Additional animals
consecutive days of post-dosing period. Toxicity of repeated administrations was tested wit h t hr ee repeat ed pr e-
selected doses at a dosing interval of 7 days. Mortality, body weight changes, and clinical signs of gross toxicity
were monitored after each drug administration and three times per week for 21 consecutive days after the first
compound administration. Bleed ing with subsequent hematological tests, clinical chemistry parameters analysis
(ALT, AST, ALP, LDH, creatine kinase, creatinine, urea, cholesterol, and triglycerides), and necropsy with
macroscopic inspection were performed on the terminal day of the repeated dosing-regime.
To test tolerability of selected compounds in vivo, female BALB/c mice were randomized by weight into seven
groups of t hree animals.

[3] = system: human BxPC-3 pancreatic adenocarcinoma; assay: BxPC-3 xenograft efficacy study; format: in vivo, athymic nu/nu NMRI mice
Source text: as §1
Finally, we tested P-SS60-CBI-TMI in the slower-growing pancreatic cancer model BxPC-3 in athymic NMRI mice (8 animals per group). […]

With `COc1cc2cc(C(=O)N3C[C@@H](CCl)c4c3cc(OC(=O)N(CCC(=O)N3CCN(C)CC3)C3CCCCC3)c3ccccc43)[nH]c2c(OC)c1OC` [P-CC60-CBI-TMI] the “effect on tumor growth” value [1] was “delayed tumor growth in the first week of treatment”.

With `COc1cc2cc(C(=O)N3C[C@@H](CCl)c4c3cc(OC(=O)N(CCC(=O)N3CCN(C)CC3)[C@H]3CCSSC3)c3ccccc43)[nH]c2c(OC)c1OC` [P-SS60-CBI-TMI] the “outcome of repeated dosing at 3 mg/kg” value [2] was “tolerated”, the “tumor suppression vs irinotecan” value ([3]; BxPC-3, 3 mg/kg vs irinotecan 10 mg/kg) was “almost identical tumor suppression” and the “tumor growth rate suppression” value ([3]; BxPC-3, once-weekly 3 mg/kg, over 4 weeks) was “ca. 70%”. For the same molecule, the “effect on tumor growth” value [1] was “maintained statistically significant tumor suppression until study termination”.
